Drawing on the supplement of paper PMC10307832, this text covers relative viability for 1 cell line.

Experiment in all cases: relative viability (nuclei count vs DMSO), 5 days (fraction); higher = more cells survive
Compound in assay [1]: Cc1ccc2nc(NCCN)c3ncc(C)n3c2c1 + CS(=O)(=O)N1CCN(Cc2cc3nc(-c4cccc5[nH]ncc45)nc(N4CCOCC4)c3s2)CC1 [Pictilisib] (partner 1 µM)
An outline of the steps:
(§1)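 Dosing by pin tool came one day after lung cancer cell lines were seeded in 1536-well plates, using either one drug or a fixed anchor-drug dose plus five library-drug doses (not always all listed) in √10 steps. After 5 days, nuclei were counted on 4× images. Relative viability is treated-well nuclei count divided by vehicle-well nuclei count, and values are medians of duplicate plates.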

Compound in the assay “Salubrinal + Lapatinib”: O=C(/C=C/c1ccccc1)NC(NC(=S)Nc1cccc2cccnc12)C(Cl)(Cl)Cl [Salubrinal] + CS(=O)(=O)CCNCc1ccc(-c2ccc3ncnc(Nc4ccc(OCc5cccc(F)c5)c(Cl)c4)c3c2)o1 [Lapatinib] (partner 2 µM)
In a few lines:
as §1

Compound in the assay “Salubrinal + Vorinostat”: O=C(/C=C/c1ccccc1)NC(NC(=S)Nc1cccc2cccnc12)C(Cl)(Cl)Cl [Salubrinal] + O=C(CCCCCCC(=O)Nc1ccccc1)NO [Vorinostat] (partner 1 µM)
In a few lines:
as §1

Compound in the assay “Salubrinal + Foretinib”: O=C(/C=C/c1ccccc1)NC(NC(=S)Nc1cccc2cccnc12)C(Cl)(Cl)Cl [Salubrinal] + COc1cc2c(Oc3ccc(NC(=O)C4(C(=O)Nc5ccc(F)cc5)CC4)cc3F)ccnc2cc1OCCCN1CCOCC1 [Foretinib] (partner 0.25 µM)
An outline of the steps: as §1

For the cell line UMC-11, the relative viability came out at 0.857 in assay [1] (first compound 0.04 µM); 0.692 in assay [1] (first compound 0.1265 µM); 0.808 in assay [1] (first compound 0.4 µM); 0.813 in assay [1] (first compound 1.265 µM); 0.708 in assay [1] (first compound 4 µM); 0.931 with Salubrinal + Lapatinib (first compound 0.08 µM). Also, the relative viability in the assay with Salubrinal + Lapatinib (first compound 0.253 µM) worked out at 0.918; with Salubrinal + Lapatinib (first compound 0.8 µM), 1.48; in the assay with Salubrinal + Lapatinib (first compound 2.53 µM) it was 1.11; with Salubrinal + Lapatinib (first compound 8 µM), 1.16; in the assay with Salubrinal + Vorinostat (first compound 0.08 µM), 0.349; with Salubrinal + Vorinostat (first compound 0.253 µM), 0.404. For the same cell line, the relative viability with Salubrinal + Vorinostat (first compound 0.8 µM) was 0.38; with Salubrinal + Vorinostat (first compound 2.53 µM), 0.334; with Salubrinal + Vorinostat (first compound 8 µM) it was 0.398; with Salubrinal + Foretinib (first compound 0.08 µM), 1.17; in the assay with Salubrinal + Foretinib (first compound 0.253 µM) it was 1; with Salubrinal + Foretinib (first compound 0.8 µM) it was 1.13. The relative viability in the assay with Salubrinal + Foretinib (first compound 2.53 µM) was determined as 1.1; with Salubrinal + Foretinib (first compound 8 µM), 1.21.
